In paper PMC7924852, “The Emericellipsins A–E from an Alkalophilic Fungus Emericellopsis alkalina Show Potent Activity against Multidrug-Resistant Pathogenic Fungi” (Journal of Fungi, 2021):
Values after ≈ are worked out from the molar mass of the structure shown. Non-standard residues stand in square brackets, D forms with d. Residues, ends and D or L forms follow the SMILES beside them. Orn = NCCC[C@H](N)C(=O)O

How the values were obtained:
[1] = system: Aspergillus niger ATCC 16404; experiment: Disc-diffusion antifungal assay; assay type: cell-based; conditions: Aspergillus niger, ATCC16404, A. niger ATCC 16404
A. niger 1133 m [2] = experiment: Disc-diffusion antifungal assay; assay type: cell-based, Aspergillus niger; conditions: Aspergillus niger, pathogenic clinical isolate
A. fumigatus VKM F-37 [3] = experiment: Disc-diffusion antifungal assay; assay type: cell-based, Aspergillus fumigatus; conditions: Aspergillus fumigatus, VKMF37
A. fumigatus 390 m [4] = experiment: Disc-diffusion antifungal assay; assay type: cell-based, Aspergillus fumigatus; conditions: Aspergillus fumigatus, pathogenic clinical isolate
A. terreus 3 K [5] = experiment: Disc-diffusion antifungal assay; assay type: cell-based; conditions: Aspergillus terreus
A. terreus 497 [6] = experiment: Disc-diffusion antifungal assay; assay type: cell-based; conditions: Aspergillus terreus, A. terreus 497, pathogenic clinical isolate
[7] = system: clinical isolates of Candida; experiment: Disc-diffusion antifungal assay, clinical yeast isolates; assay type: cell-based; conditions: range over clinical isolates of Candida (Figure S2)
[8] = system: reference and clinical strains of Aspergillus; experiment: Disc-diffusion antifungal assay, Aspergillus strains; assay type: cell-based; conditions: range over clinical isolates of Aspergillus (Figure S2)
A. niger ATCC 16404 = experiment: Broth two-fold microdilution MIC (CLSI); assay type: cell-based, Aspergillus niger; conditions: Aspergillus niger, ATCC16404, 48 h, pH 7, read-out: Minimal Inhibitory Concentration (MIC)
A. niger 1133 m [9] = experiment: Broth two-fold microdilution MIC (CLSI); assay type: cell-based, Aspergillus niger; conditions: Aspergillus niger, 1133M, 48 h, pH 7, read-out: Minimal Inhibitory Concentration (MIC)
A. terreus 3 K [10] = experiment: Broth two-fold microdilution MIC (CLSI); assay type: cell-based; conditions: Aspergillus terreus, 3K, 48 h, pH 7, read-out: Minimal Inhibitory Concentration (MIC)
A. terreus 497 [11] = experiment: Broth two-fold microdilution MIC (CLSI); assay type: cell-based; conditions: Aspergillus terreus, 497, 48 h, pH 7, read-out: Minimal Inhibitory Concentration (MIC)
A. fumigatus VKM F-37 [12] = experiment: Broth two-fold microdilution MIC (CLSI); assay type: cell-based, Aspergillus fumigatus; conditions: Aspergillus fumigatus, VKMF37, 48 h, pH 7, read-out: Minimal Inhibitory Concentration (MIC)
A. fumigatus 390 m [13] = experiment: Broth two-fold microdilution MIC (CLSI); assay type: cell-based, Aspergillus fumigatus; conditions: Aspergillus fumigatus, 390M, 48 h, pH 7, read-out: Minimal Inhibitory Concentration (MIC)
Candida albicans 1402 [14] = experiment: Broth microdilution MIC and MFC (CLSI); assay type: cell-based
C. glabrata 1402 [15] = experiment: Broth microdilution MIC and MFC (CLSI); assay type: cell-based
C. krusei 1447 [16] = experiment: Broth microdilution MIC and MFC (CLSI); assay type: cell-based
C. tropicalis 156 [17] = experiment: Broth microdilution MIC and MFC (CLSI); assay type: cell-based
C. parapsilosis 571 [18] = experiment: Broth microdilution MIC and MFC (CLSI); assay type: cell-based
[19] = system: Cryptococcus neoformans 297; experiment: Broth microdilution MIC and MFC (CLSI); assay type: cell-based
C. laurentii 325m = experiment: Broth microdilution MIC and MFC (CLSI); assay type: cell-based, Cr. laurentii; conditions: Papiliotrema laurentii
Aspergillus niger 1133m = experiment: Sensititre YeastOne antifungal susceptibility test; assay type: cell-based; conditions: Aspergillus niger, 1133M
A. fumigatus 390m = experiment: Sensititre YeastOne antifungal susceptibility test; assay type: cell-based; conditions: Aspergillus fumigatus, 390M
A. terreus 497 [20] = experiment: Sensititre YeastOne antifungal susceptibility test; assay type: cell-based; conditions: Sensititre YeastOne; A. terreus 497
Candida albicans 1402 [21] = experiment: Sensititre YeastOne antifungal susceptibility test; assay type: cell-based; conditions: Candida albicans, 1402
C. glabrata 1402 [22] = experiment: Sensititre YeastOne antifungal susceptibility test; assay type: cell-based; conditions: Nakaseomyces glabratus, 1402
C. krusei 1447 [23] = experiment: Sensititre YeastOne antifungal susceptibility test; assay type: cell-based; conditions: Pichia kudriavzevii, 1447
C. tropicalis 156 [24] = experiment: Sensititre YeastOne antifungal susceptibility test; assay type: cell-based; conditions: Candida tropicalis, 156
C. parapsilosis 571 [25] = experiment: Sensititre YeastOne antifungal susceptibility test; assay type: cell-based; conditions: Lodderomyces parapsilosis, 571
[26] = system: Cryptococcus neoformans 297; experiment: Sensititre YeastOne antifungal susceptibility test; assay type: cell-based; conditions: Cryptococcus neoformans, 297
Cr. laurentii 325m = experiment: Sensititre YeastOne antifungal susceptibility test; assay type: cell-based; conditions: Papiliotrema laurentii, 325M
human erythrocytes = experiment: Hemolytic activity; assay type: cell-based; conditions: 20 μM, 1 h, 37 °C, relative to H2O control = 100%, OD 540 nm or 570 nm, triplicate, mean
Procedure: Erythrocytes were isolated from the peripheral blood of healthy donors after incubation at 4 °C for 2–3 h. All the donors are males, 35–38 years old. All of them have approved to collect blood samples, and the authors have permissions filled. All the blood samples have been destroyed after the experiments finished. The red blood cell suspension (100 μL) was pelleted, washed twice with saline, then the pellet was resuspended in 500 μL saline or distilled water (positive control of hemolysis). The compounds were added (final concentration of 20 μM). The samples were incubated for 1 h at 37 °C and centrifuged at 2000 rpm for 1.5 min. The OD of supernatants was measured on a Multiscan spectrophotometer FC (Thermo Scientific, Waltham, MA, USA) at a wavelength of 540 nm. The percent hemolysis was calculated relative to the positive control, taken as 100%.
Erythrocytes were isolated from the human blood: On the day of the study, blood was taken from the donor’s cubital vein into a test tube with an anticoagulant. The blood was incubated at 4 °C for 2‒3 h. A suspension of erythrocytes (100 μL) was diluted with a physiological buffer (pH 7.2) to a total volume of 500 μL. Solutions of the test substances with an initial concentration of […] (DMSO) were diluted with a PBS buffer (1:10). The resulting solutions were introduced into Eppendorf tubes in the amounts required to create the studied concentration (5, 10, or 20 μM). A mixture of PBS with erythrocytes was added to a total volume of 200 μL. The control (C) was a mixture of erythrocytes with H2O (100% of hemolysis). The intact control solution (I) was a mixture of erythrocytes with the PBS and solvent (DMSO). The antibiotic gramicidin S (Gram S) was used as a control sample with active hemolysis. The mixture was incubated for 1 h at 37 °C. The measurement of the optical density of the supernatants was carried out on a BioTek ELx800 automatic microplate photometer (USA) at 570 nm. The optical density of the liquid above the sediment in the control sample with H2O was taken as 100%.

Compound `C[C@@H]1[C@H](O)[C@@H](C)/C=C/C=C/C=C/C=C/C=C/C=C/C=C/[C@H](O[C@@H]2O[C@H](C)[C@@H](O)[C@H](N)[C@@H]2O)C[C@@H]2O[C@](O)(C[C@@H](O)C[C@@H](O)[C@H](O)CC[C@@H](O)C[C@@H](O)CC(=O)O[C@H]1C)C[C@H](O)[C@H]2C(=O)O` [AmpB, Amphotericin B] has a zone of inhibition at 40 µg/disc [1] of 0 mm, a zone of inhibition at 40 µg/disc (A. niger 1133 m [2]) of 10 ± 0.14 mm and a zone of inhibition at 40 µg/disc (A. fumigatus VKM F-37 [3]) of 12 ± 0.23 mm. It also gave a zone of inhibition at 40 µg/disc (A. fumigatus 390 m [4]) of 15 ± 0.51 mm, a zone of inhibition at 40 µg/disc (A. terreus 3 K [5]) of 0 mm and a zone of inhibition at 40 µg/disc (A. terreus 497 [6]) of 0 mm. For the same compound, the inhibition zones [7] was 10–12 mm, the inhibition zones [8] was 15–17 mm and the MIC (A. niger ATCC 16404) was 1 µg/mL (≈ 1.08 µM). The MIC (A. niger 1133 m [9]) was 1 µg/mL (≈ 1.08 µM), the MIC (A. terreus 3 K [10]) was over 64 µg/mL and the MIC (A. terreus 497 [11]) was over 64 µg/mL. The MIC (A. fumigatus VKM F-37 [12]) was 1 µg/mL (≈ 1.08 µM), the MIC (A. fumigatus 390 m [13]) was 1 µg/mL (≈ 1.08 µM) and the MFC (Candida albicans 1402 [14]; Candida albicans 1402, lowest concentration causing 95% death, plated on PDA agar, read-out: MFC) was 0.5 µg/mL (≈ 0.541 µM). The MIC (Candida albicans 1402 [14]; Candida albicans 1402 clinical isolate, RPMI 1640 pH 7.0, 35 °C, 24 h, read-out: MIC) was 0.5 µg/mL (≈ 0.541 µM), the MIC (C. glabrata 1402 [15]; Nakaseomyces glabratus, 1402, 24 h, pH 7) was 1 µg/mL (≈ 1.08 µM) and the MFC (C. glabrata 1402 [15]; Nakaseomyces glabratus, C. glabrata 1402, lowest concentration causing 95% death, read-out: MFC) was 1 µg/mL (≈ 1.08 µM). It also gave an MIC (C. krusei 1447 [16]; Pichia kudriavzevii, 1447, 24 h, pH 7) of 2 µg/mL (≈ 2.16 µM), an MFC (C. krusei 1447 [16]; Pichia kudriavzevii, C. krusei 1447, lowest concentration causing 95% death, read-out: MFC) of 4 µg/mL (≈ 4.33 µM) and an MIC (C. tropicalis 156 [17]; Candida tropicalis, 156, 24 h, pH 7) of 0.5 µg/mL (≈ 0.541 µM). The MFC (C. tropicalis 156 [17]; Candida tropicalis, C. tropicalis 156, lowest concentration causing 95% death, read-out: MFC) was 1 µg/mL (≈ 1.08 µM), the MIC (C. parapsilosis 571 [18]; Lodderomyces parapsilosis, 571, 24 h, pH 7) was 1 µg/mL (≈ 1.08 µM) and the MFC (C. parapsilosis 571 [18]; Lodderomyces parapsilosis, C. parapsilosis 571, lowest concentration causing 95% death, read-out: MFC) was 1 µg/mL (≈ 1.08 µM). For the same compound, the MFC ([19]; Cryptococcus neoformans 297, lowest concentration causing 95% death, read-out: MFC) was 1 µg/mL (≈ 1.08 µM), the MIC ([19]; Cryptococcus neoformans, 297, 24 h, pH 7) was 0.5 µg/mL (≈ 0.541 µM) and the MIC (C. laurentii 325m; 325M, 24 h, pH 7) was 0.25 µg/mL (≈ 0.271 µM). For the same compound, the MFC (C. laurentii 325m; C. laurentii 325m, lowest concentration causing 95% death, read-out: MFC) was 0.5 µg/mL (≈ 0.541 µM), the MIC (Aspergillus niger 1133m) was 1 µg/mL (≈ 1.08 µM) and the MIC (A. fumigatus 390m) was 1 µg/mL (≈ 1.08 µM). For the same compound, the “MIC (class symbol)” value (A. terreus 497 [20]) was “R”, the MIC (Candida albicans 1402 [21]) was 0.5 µg/mL (≈ 0.541 µM) and the MIC (C. glabrata 1402 [22]) was 1 µg/mL (≈ 1.08 µM). It also gave an MIC (C. krusei 1447 [23]) of 2 µg/mL (≈ 2.16 µM), an MIC (C. tropicalis 156 [24]) of 0.5 µg/mL (≈ 0.541 µM) and an MIC (C. parapsilosis 571 [25]) of 1 µg/mL (≈ 1.08 µM). The MIC [26] was 1 µg/mL (≈ 1.08 µM) and the MIC (Cr. laurentii 325m) was 0.5 µg/mL (≈ 0.541 µM).

`CC(C)C[C@@H]1NC(=O)[C@H](CCCN)NC(=O)[C@H](C(C)C)NC(=O)[C@@H]2CCCN2C(=O)[C@@H](Cc2ccccc2)NC(=O)[C@H](CC(C)C)NC(=O)[C@H](CCCN)NC(=O)[C@H](C(C)C)NC(=O)[C@@H]2CCCN2C(=O)[C@@H](Cc2ccccc2)NC1=O` [gramicidin S] (cyclo(L[dF]PV[Orn]L[dF]PV[Orn])) gave a hemolysis (human erythrocytes) of 100%.
